“Also recorded” adds a separate entry of the source. Like-named read-outs stand apart in the source and are kept apart here. Values belong to the compound of their own block, whether it stands above or below them. Numbered stars: 1 amine (or outer) side, 2 acyl side, 3 side chain; on linkers, the order of the positions; unused ones are H or OH. Bridge positions count the residues as written; N and C are the ends. Square brackets hold non-standard residues; d marks the D form. Peptide text beside a SMILES is read from it. nitrobenzoyl (NO2-C6H3-CO) = nitrobenzoyl unit acylating the N-terminal His, with its aryl carbon thioether-bonded to the Cys side-chain S; X1 = O=C(c1cc([N+](=O)[O-])ccc1[*:2])[*:1]
Key:
MC1R [1] = target: T1, MC1R (Mus musculus, UniProt Q01727); experiment: Competitive binding assay with [125I]-NDP-α-MSH in B16F1 melanoma cells; details: [125I]-[Nle4,DPhe7]-α-MSH radioligand, murine melanoma B16F1 cells, in triplicate, GraphPad Prism fit, read-out: MC1R binding affinity (IC50)
T1 construct: endogenous in cells; host or cells: murine melanoma B16F1 cells
Procedure: The binding affinities of the peptides CycN-K6 and CycN-K7 to MC1R were tested in a competitive binding assay using [^125I]-[Nle^4,DPhe^7]-α-MSH ([^125I]-NDP-α-MSH) as radioligand and murine melanoma B16F1 cells (Figure S1, Supplementary Materials), as previously described for other α-MSH analogues. Table 1 lists the IC50 values obtained for those two peptides, and for the 19-membered macrocyclic peptides PG10N and CycS-C6 [19, 20]. […] Therefore, a detailed structural comparison of these three peptides is required to understand the molecular basis for their binding to receptor MC1R.
NDP-α-MSH was radioiodinated as described. To determine the inhibitory concentration of 50 % (IC50) values for the α-MSH analogues, competitive binding assays with [^125I]NDP-α-MSH in B16F1 melanoma cells were carried out in triplicate following the previously described procedure. IC50 values were calculated from the plots of the percentage of [^125I]NDP-α-MSH bound to the cells vs. the concentrations of displacing peptides by using GraphPad Prism software (GraphPad Software Inc., La Jolla, CA, USA).

MC1R [2] = target: T1, MC1R; details: ref [20], cited from earlier work
Description: Table 1 Sequences, cycle size and MC1R binding affinities (IC50) of cyclic α-MSH analogues. | column: IC50 (nM) || Linear and cyclic analogues of the α-melanocyte stimulating hormone (α-MSH) targeting the human melanocortin receptor 1 (MC1R) are of pharmacological interest for detecting and treating melanoma. The central sequence of α-MSH (His-Phe-Arg-Trp) has been identified as being essential for receptor binding. To deepen current knowledge on the molecular basis for α-MSH bioactivity, we aimed to understand the effect of cycle size on receptor binding. To that end, we synthesised two macrocyclic isomeric α-MSH analogues, c[NH-NO2-C6H3-CO-His-DPhe-Arg-Trp-Lys]-Lys-NH2 (CycN-K6) and c[NH-NO2-C6H3-CO-His- ... || Aimed at enhancing the biological stability, potency and specificity of the endogenous ligand, a library of α-MSH analogues has been designed for imaging and therapeutic applications. […] However, replacement of the alkylthioaryl-bridge (Cy ... || (+ 1 further places)

all human MCRs = details: ref [19]; cited from earlier work
Description: Aimed at enhancing the biological stability, potency and specificity of the endogenous ligand, a library of α-MSH analogues has been designed for imaging and therapeutic applications. […] However, replacement of the alkylthioaryl-bridge (Cy ...

MC1R [3] = details: 19-membered parent peptide; ref [19]; read-out: MC1R binding affinity (IC50); cited from earlier work
Description: Table 1 Sequences, cycle size and MC1R binding affinities (IC50) of cyclic α-MSH analogues. | column: IC50 (nM)

T1 sequence (Q01727 whole entry): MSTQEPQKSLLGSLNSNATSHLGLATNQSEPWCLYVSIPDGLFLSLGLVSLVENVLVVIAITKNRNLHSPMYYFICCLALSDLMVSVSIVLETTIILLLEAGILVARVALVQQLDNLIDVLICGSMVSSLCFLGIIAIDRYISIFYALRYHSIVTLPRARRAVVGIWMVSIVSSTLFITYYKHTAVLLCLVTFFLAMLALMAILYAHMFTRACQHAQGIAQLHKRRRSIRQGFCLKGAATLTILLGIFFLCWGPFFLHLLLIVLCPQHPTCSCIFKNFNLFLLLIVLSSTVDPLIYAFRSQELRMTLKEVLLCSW

IC50 (MC1R [1]): 155 ± 16 nM
Compound: N=C(N)NCCC[C@@H]1NC(=O)[C@@H](Cc2ccccc2)NC(=O)[C@H](Cc2c[nH]cn2)NC(=O)c2cc([N+](=O)[O-])ccc2NCCCC[C@@H](C(=O)N[C@@H](CCCCN)C(N)=O)NC(=O)[C@H](Cc2c[nH]c3ccccc23)NC1=O [CycN-K6, c[NH–NO2–C6H3–CO–His–DPhe–Arg–Trp–Lys]–Lys–NH2] (H[dF]RWKK-NH2; linker N-5 via X1)

IC50 (MC1R [1]): 495 ± 101 nM
Compound: N=C(N)NCCC[C@@H]1NC(=O)[C@@H](Cc2ccccc2)NC(=O)[C@H](Cc2c[nH]cn2)NC(=O)c2cc([N+](=O)[O-])ccc2NCCCC[C@@H](C(N)=O)NC(=O)[C@H](CCCCN)NC(=O)[C@H](Cc2c[nH]c3ccccc23)NC1=O [CycN-K7, c[NH–NO2–C6H3–CO–His–DPhe–Arg–Trp–Lys–Lys]–NH2] (H[dF]RWKK-NH2; linker N-6 via X1)

Compound: c[S–NO2–C6H3–CO–His–DPhe–Arg–Trp–Cys]–Lys–NH2 (sidechain bridge or staple) ({nitrobenzoyl (NO2-C6H3-CO)}-H[dF]RWCK-NH2; thioether N-5) [CycS-C6, 19-membered cyclic analogue, previously reported by the authors]
IC50 (MC1R [2]; previously reported by the authors, competitive binding, [125I]-NDP-α-MSH, B16F1 cells, read-out: MC1R binding affinity (IC50)): 1770 ± 480 nM

Compound: c[S–NO2–C6H3–CO–His–DPhe–Arg–Trp–Cys]–Lys–NH2 (sidechain bridge or staple) [CycS-C6, 19-membered cyclic analogue, previously reported by the authors]
MC1R binding in words (MC1R [2]; relative to parent PG10N, addition of C-terminal Lys): strongly decreases affinity to MC1R; also recorded: impaired binding

Compound: c[S–NO2–C6H3–CO–His–DPhe–Arg–Trp–Cys]–NH2 (sidechain bridge or staple) [PG10N, 19-membered alkylthioaryl-bridged macrocyclic α-MSH analogue]
agonist activity (all human MCRs): potent full agonist for all human MCRs | IC50 (MC1R [3]): 3.7 ± 0.5 nM

Reference: PMC6152105, “NMR Insights into the Structure-Function Relationships in the Binding of Melanocortin Analogues to the MC1R Receptor” (Molecules : A Journal of Synthetic Chemistry and Natural …, 2017)
